Source: patent US20190256499A1, “SUBSTITUTED QUINOXALINE DERIVATIVES AS INHIBITORS OF PFKFB” (priority 2016, published 2019)
Converted amounts (≈) assume the structure as drawn.

What was measured:
[1] = Microsomal stability (intrinsic clearance), mouse liver microsomes; format: in vitro ADME; parameters: microsomal CLint: dose or concentration left out as unconfirmed; settings: mouse, liver microsomes, pH 7.4, mouse liver microsomes
Description: (§1) A microsomal stability assay is used to measure in vitro clearance (Clint). The assay involves measuring the rate of disappearance of a compound due to its intrinsic attitude to be metabolized (“intrinsic” meaning that the disappearance is not affected by other properties like permeability, binding etc. that play a role when quantifying in vivo clearance). The microsomal stability (intrinsic clearance, Clint) and thus metabolic stability is generally given as μl/min/mg protein. It can be visualized as the volume of solution that 1 mg of microsomes is able to clear of the compound in one minute.
(§2) A Tecan Genesis workstation (RSP 150/8) was used for to perform the microsomal incubations. Analysis was carried out using a Waters ACQUITY UPLC system coupled to an ABSciex API3000 mass spectrometer. Data analysis was performed using Assay Explorer (Symyx).
(§3) Mobile phases: A=0.1% formic acid in water; B=acetonitrile
(§4) Flow rate: 0.750 mL/min; Detection: ESI, MRM; Injection: 10 μL; Column temperature: 50° C.
(§5) Potassium phosphate buffer: 0.05 M potassium phosphate buffer pH 7.4 containing 1 mM MgCl2 NADPH (nicotinamide adenine dinucleotide phosphate): 22.5 mg NADPH-Na4 in 1.8 ml potassium phosphate buffer Acetonitrile: 50 Vol % acetonitrile (1 volume acetonitrile, 1 volume water) DMSO: 20 Vol % DMSO in water Stock solution of 20 mg/ml human or mouse liver microsomes (protein)/ml in phosphate buffer Stock solution of 10 mM compound in 100% DMSO

[2] = Kinetic solubility; format: physicochemical; settings: phosphate buffer, pH 7.4, aqueous buffer, kinetic from dmso stock, phosphate buffer 20 mM pH 7.4, 2% DMSO, room temperature
Description: Kinetic solubility of compounds of the present invention were tested according the following procedure.
(a) Buffer Solution Phosphate Buffer 20 mM pH 7.4 is prepared using Sorensen Phosphate Buffer 0.2 M pH 7.4 (EMS) in a 1000 mL volumetric flask (b) 2% DMSO in Phosphate Buffer 20 mM pH 7.4 is prepared by using 1 mL Dimethylsulfoxide (Merck) and 49 ml Sorensen Phosphate Buffer 20 mM pH 7.4 (c) Acetonitrile/Methanole/Eluent A (1:1:2; v/v/v) is prepared by using 50 mL Acetonitrile (Merck), 50 mL Methanol (Merck) and 100 mL Eluent A (d) Eluent A is prepared by using 1 mL Formic Acid (Merck) and 999 mL Ultrapure water (e) Eluent B is prepared by using 1 mL Formic Acid (Merck) and 999 mL Acetonitrile (Merck) (f) Filtration plate: Millipore MultiScreen HTS HV (0.45 μm) 96 Well (Millipore)
98 μL buffer solution (a) is added into a well of a 96 well filtration plate (f). Then 2 μL of 10 mM test compound solution in DMSO (Remp tube) is added. The filtration plate is incubated at room temperature for 120 minutes while agitating at 250 rpm and centrifuged with the PP-Plate (g) as receiver plate below (2500 rpm, 3 min). The 50 μL of filtrate is taken from the receiver plate and mixed with 50 μL of 2% DMSO in buffer pH 7.4 solution (b) (dilution factor=2) in a HPLC Vial (i)+(j).
Standard is prepared by diluting 2 μL of the same 10 mM test compound solution (Remp tube) diluted with 198 μL Acetonitrile/Methanole/Eluent A (1:1:2; v/v/v) (c) to prepare a 100 μM standard solution in a HPLC Vial (i)+(j).
Column temperature: 37° C. Autosampler: room temperature (approx. 25° C.) Gradient programme: […]
Injection volume: 10 μL Wavelength: Suitable wavelength (maximum sensitivity) selected out of wavelength range of 190-400 nm using a DAD detector.
L [μg/mL]=(area sample*concentration standard*dilution factor sample)/(area standard*dilution factor standard)
S [mol/L]=[…] Calculation: […]

[3] = molecular target: T1, Human recombinant His-tagged PFKFB3 (Homo sapiens, UniProt Q16875); assay: PFKFB3 IC50 determination assay (modified ADP-Glo in vitro kinase assay); format: biochemical; settings: human recombinant PFKFB3 25 nM, ATP 20 μM, fructose-6-phosphate 2 μM, 2 h, rt; read-out: PFKFB IC50
T1 construct: His; made in house
T1 sequence (Q16875 whole entry): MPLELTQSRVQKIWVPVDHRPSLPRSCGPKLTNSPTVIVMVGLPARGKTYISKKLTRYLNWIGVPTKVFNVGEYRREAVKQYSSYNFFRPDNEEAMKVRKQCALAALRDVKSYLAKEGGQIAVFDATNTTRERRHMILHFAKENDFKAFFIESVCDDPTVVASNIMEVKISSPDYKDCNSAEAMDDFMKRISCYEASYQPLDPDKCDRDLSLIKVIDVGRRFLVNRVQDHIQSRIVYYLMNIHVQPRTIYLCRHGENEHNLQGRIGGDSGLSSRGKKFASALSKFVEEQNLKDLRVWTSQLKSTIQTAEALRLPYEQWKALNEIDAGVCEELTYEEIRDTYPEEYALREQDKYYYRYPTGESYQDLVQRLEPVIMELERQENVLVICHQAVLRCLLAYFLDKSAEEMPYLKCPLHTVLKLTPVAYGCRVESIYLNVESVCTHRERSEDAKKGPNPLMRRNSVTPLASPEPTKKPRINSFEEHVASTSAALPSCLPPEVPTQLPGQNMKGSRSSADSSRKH
Description: In vitro kinase assay used to determine IC50 values for tested inhibitors is based on a modified ADP-Glo™ system (Promega) and consists of two parts:
1. Kinase reaction—performed in optimized conditions. At this step PFKFB3 phosphorylates its substrate fructose-6-phosphate using ATP as a source of phosphate to produce fructose-2,6-bisphosphate and ADP. Reaction is performed at Km values for ATP and substrate using optimized buffer composition and time of the reaction. Human recombinant His-tagged PFKFB3 (PFKFB3 BATCH II SEC) with confirmed activity is produced and purified in-house. 2. Detection of ADP as a product of the reaction using ADP-Glo™ system. This part is conducted by using the commercially available kit ADP-Glo™ Kinase Assay (Promega, cat. No# V9103) according to manufacturer's instruction, modified by 5× dilutions of assay reagents (both ADP-Glo™ Reagent and Kinase Detection Solution). Reproducibility and reliability of this modification is confirmed in an optimization process.
Test compounds are dissolved in DMSO and then transferred to the V-bottom 96-well plate. For IC50 determination ten 10× serial dilutions starting from 100 μM are prepared.
Two mixes are prepared on ice: Mix 1—containing appropriate kinase amount in 2× reaction buffer (100 mM TRIS pH 8.0) and Mix 2—containing 2.31× concentrated substrate (Fructose-6-phosphate) and ATP in MilliQ water. 15 μL per well of Mix 1 is transferred to assay wells of 96-well white plate. Next, 2 μl of 15× concentrated test compound in DMSO is added to Mix 1 for 20 min pre-incubation, followed by addition of Mix 2 (13 μl/well). Total reaction volume is 30 μL per well. Samples are tested in duplicates. Final concentration of DMSO in the reaction is 6.7%. Conditions needed for performing PFKFB3 (PFKFB3 BATCH II SEC) in vitro kinase assay are given below:
This protocol is based on Technical Bulletin, ADP-Glo™ Kinase Assay (Promega) and is adapted to 96-well plate containing 30 μL reaction mixture:
30 μL of 5× diluted ADP-Glo™ Reagent is added to each well of 96-well plate containing 30 μL of reaction mixture. The plate is incubated for 90 minutes on a shaker at rt. 60 μL of 5× diluted Kinase Detection Solution is added to each well of 96-well plate containing 60 μL of the solution (ratio of kinase reaction volume to ADP-Glo™ Reagent volume to Kinase Detection Solution volume is maintained at 1:1:2). Plate is incubated for 40 minutes on a shaker at rt, protected from light. Luminescence is measured in the plate reader Synergy 2 (BioTek).
Luminescent readouts for compounds tested in 10 concentrations (routinely from 100 μM to […], […] serial dilutions) in duplicates, as well as for positive control, are first normalized to no-substrate negative control by its subtraction. In the next step, % of normalized positive control is calculated for each data point and plotted against test compound concentration:
% of control—percent of positive control normalized to no-substrate negative control Lumcpd—luminescence of test compound Lumneg—luminescence of no-substrate negative control Lumpos—luminescence of positive control
IC50 parameter is determined by the GraphPad Prism 5.0 software [log(inhibitor) vs. response—Variable slope (four parameters)].

[4] = Microsomal stability (intrinsic clearance), human liver microsomes; format: in vitro ADME; parameters: microsomal CLint: dose or concentration left out as unconfirmed; settings: human, liver microsomes, pH 7.4, human liver microsomes
Description: as §1, §2, §3, §4, §5

| SMILES | microsomal CLint [1] [µL/min/mg] | solubility kinetic at 120 min [2] [µM] | IC50 [3] [nM] | microsomal CLint [4] [µL/min/mg] |
| --- | --- | --- | --- | --- |
| COc1ccc([C@@H](Nc2cc(-c3ccc4ccn(C)c4c3)c3nccnc3c2)c2cnnn2C)cn1 [Comparative Example 3, N—[(R)-(6-methoxypyridin-3-yl)(1-methyl-1H-1,2,3-triazol-5-yl)methyl]-8-(1-methyl-1H-indol-6-yl)quinoxalin-6-amine, reference compound] | 287 | 22 (≈ 10.5 µg/mL) | 530 | 267 |
| Cn1ccc2ccc(-c3cc(NC(c4cccnc4)c4ccc(=O)[nH]n4)cc4nccnc34)cc21 (centres unmarked) [Example 1, 6-{[8-(1-Methyl-1H-indol-6-yl)-quinoxalin-6-ylamino]-pyridin-3-yl-methyl}-2H-pyridazin-3-one] | 122 | 69 (≈ 31.7 µg/mL) | 32 | 78 |
